This is an account of results in US11091478B2 (Fochon Pharmaceuticals, Ltd., priority 2017, dated 2021).

Read-outs that look alike come from different tables or passages of the source.

The subject of one test is DOHH2 cells. Nature of the test: Cell proliferation assay (MTS), DOHH2 cells, 120 h. In kind it is cell-based. In a few lines:
(§1)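 Treatment lasts 72 h for RS4;11 and 120 h for DOHH2 cells seeded at 5000 per well in serum-containing RPMI-1640. A 2 h MTS step, halted with 10% SDS, precedes dual-wavelength absorbance reading and IC50 fitting.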

The next test deals with RS4;11 cells. Put plainly: Cell proliferation assay (MTS), RS4;11 cells, 72 h. In kind it is cell-based. In a few lines:
as §1

For the molecule `CC(C)[C@H]1COc2cc(S(=O)(=O)NC(=O)c3ccc(N4CCN(CC5=C(c6ccc(Cl)cc6)CC(C)(C)CC5)CC4)cc3Oc3cnc4[nH]ccc4c3)cc([N+](=O)[O-])c2N1` [Example 2-113, (S)-2-((1H-pyrrolo[2,3-b]pyridin-5-yl)oxy)-4-(4-((4′-chloro-5,5-dimethyl-3,4,5,6-tetra-hydro-[1,1′-biphenyl]-2-yl)methyl)piperazin-1-yl)-N-((3-isopropyl-5-nitro-3,4-dihydro-2H-benzo[b][1,4]oxazin-7-yl)sulfonyl) benzamide], the IC50 in the test on DOHH2 cells (Homo sapiens, DOHH-2, 120 h) turned out to be 20 nM; with RS4;11 cells (Homo sapiens, RS4-11, 72 h), 6 nM.
The like results for `CC1(C)CCC(CN2CCN(c3ccc(C(=O)NS(=O)(=O)c4cc5c(c([N+](=O)[O-])c4)N[C@H](Cc4ccccn4)CO5)c(Oc4cnc5[nH]ccc5c4)c3)CC2)=C(c2ccc(Cl)cc2)C1` [Example 2-199, (R)-2-((1H-pyrrolo[2,3-b]pyridin-5-yl)oxy)-4-(4-((4′-chloro-5,5-dimethyl-3,4,5,6-tetra-hydro-[1,1′-biphenyl]-2-yl)methyl)piperazin-1-yl)-N-((5-nitro-3-(pyridin-2-ylmethyl)-3,4-dihydro-2H-benzo[b][1,4]oxazin-7-yl)sulfonyl)benzamide] were, in that order, 55 nM and 18 nM.
As to `CC1(C)CCC(CN2CCN(c3ccc(C(=O)NS(=O)(=O)c4cc5c(c([N+](=O)[O-])c4)N[C@@H](C4CCC(C)(O)CC4)CO5)c(Oc4cnc5[nH]ccc5c4)c3)CC2)=C(c2ccc(Cl)cc2)C1` (stereo partly drawn) [Example 2-215, (S)-2-((1H-pyrrolo[2,3-b]pyridin-5-yl)oxy)-4-(4-((4′-chloro-5,5-dimethyl-3,4,5,6-tetra-hydro-[1,1′-biphenyl]-2-yl)methyl)piperazin-1-yl)-N-((3-(4-hydroxy-4-methylcyclohex-yl)-5-nitro-3,4-dihydro-2H-benzo[b][1,4]oxazin-7-yl)sulfonyl)benzamide], the IC50 with DOHH2 cells (Homo sapiens, DOHH-2, 120 h) is 65 nM; in the test on RS4;11 cells (Homo sapiens, RS4-11, 72 h), 3 nM.
As for `CC1(C)CCC(CN2CCN(c3ccc(C(=O)NS(=O)(=O)c4cc5c(c([N+](=O)[O-])c4)N[C@H](CCN=S(C)(C)=O)CO5)c(Oc4cnc5[nH]ccc5c4)c3)CC2)=C(c2ccc(Cl)cc2)C1` [Example 2-33, (R)-2-((1H-pyrrolo[2,3-b]pyridin-5-yl)oxy)-4-(4-((4′-chloro-5,5-dimethyl-3,4,5,6-tetra-hydro-[1,1′-biphenyl]-2-yl)methyl)piperazin-1-yl)-N-((3-(2-((dimethyl(oxo)-l6-sulfanyl-idene)amino)ethyl)-5-nitro-3,4-dihydro-2H-benzo[b][1,4]oxazin-7-yl)sulfonyl)benza-mide], the IC50 in the test on DOHH2 cells (Homo sapiens, DOHH-2, 120 h) came out at 25 nM; in the test with RS4;11 cells (Homo sapiens, RS4-11, 72 h), 11 nM.
For the molecule `C[C@@H]1CN(C[C@@H]2COc3cc(S(=O)(=O)NC(=O)c4ccc(N5CCN(CC6=C(c7ccc(Cl)cc7)CCC(C)(C)C6)CC5)cc4Oc4cnc5[nH]ccc5c4)cc([N+](=O)[O-])c3N2)CCN1C1COC1` [Example 2-210, 2-((1H-pyrrolo[2,3-b]pyridin-5-yl)oxy)-4-(4-((4′-chloro-4,4-dimethyl-3,4,5,6-tetrahydro-[1,1′-biphenyl]-2-yl)methyl)piperazin-1-yl)-N-(((R)-3-(((R)-3-methyl-4-(oxetan-3-yl)piperazin-1-yl)methyl)-5-nitro-3,4-dihydro-2H-benzo[b][1,4]oxazin-7-yl)sulfonyl) benzamide], the half-maximal inhibitory concentration (IC50) in the test on DOHH2 cells (Homo sapiens, DOHH-2, 120 h) is 35 nM; with RS4;11 cells (Homo sapiens, RS4-11, 72 h) it was 7 nM.
Regarding `COC(=O)NC1CCN(C[C@@H]2COc3cc(S(=O)(=O)NC(=O)c4ccc(N5CCN(CC6=C(c7ccc(Cl)cc7)CC(C)(C)CC6)CC5)cc4Oc4cnc5[nH]ccc5c4)cc([N+](=O)[O-])c3N2)CC1` [Example 2-152, methyl (R)-(1-((7-(N-(2-((1H-pyrrolo[2,3-b]pyridin-5-yl)oxy)-4-(4-((4′-chloro-5,5-dimethyl-3,4,5,6-tetrahydro-[1,1′-biphenyl]-2-yl)meth-yl)piperazin-1-yl)benzoyl)sulfamoyl)-5-nitro-3,4-dihydro-2H-benzo[b][1,4]oxazin-3-yl)methyl)piperidin-4-yl)carbamate], the IC50 with DOHH2 cells (Homo sapiens, DOHH-2, 120 h) came to 1 nM; in the test on RS4;11 cells (Homo sapiens, RS4-11, 72 h) it was 1 nM.
Take `CC1(C)CCC(CN2CCN(c3ccc(C(=O)NS(=O)(=O)c4cc5c(c([N+](=O)[O-])c4)N[C@@H](CN4CCS(=O)(=O)CC4)CO5)c(Oc4cnc5[nH]ccc5c4)c3)CC2)=C(c2ccc(Cl)cc2)C1` [Example 2-121, (S)-2-((1H-pyrrolo[2,3-b]pyridin-5-yl)oxy)-4-(4-((4′-chloro-5,5-dimethyl-3,4,5,6-tetra-hydro-[1,1′-biphenyl]-2-yl)methyl)piperazin-1-yl)-N-((3-((1,1-dioxidothiomorpholino)methyl)-5-nitro-3,4-dihydro-2H-benzo[b][1,4]oxazin-7-yl)sulfonyl)benzamide]: the IC50 is 48 nM with DOHH2 cells (Homo sapiens, DOHH-2, 120 h) and 36 nM in the test with RS4;11 cells (Homo sapiens, RS4-11, 72 h).
`CC1(C)CCC(CN2CCN(c3ccc(C(=O)NS(=O)(=O)c4cc5c(c([N+](=O)[O-])c4)N[C@H](CC4CCC(O)CC4)CO5)c(Oc4cnc5[nH]ccc5c4)c3)CC2)=C(c2ccc(Cl)cc2)C1` (single isomer, unassigned) [Example 2-239B]: the IC50 with DOHH2 cells and in the test on RS4;11 cells was 1 nM throughout.
Regarding `CN1CCN(C[C@H]2CSc3cc(S(=O)(=O)NC(=O)c4ccc(N5CCN(CC6=C(c7ccc(Cl)cc7)CC(C)(C)CC6)CC5)cc4Oc4cnc5[nH]ccc5c4)cc([N+](=O)[O-])c3N2)CC1` [Example 3-9, (S)-2-((1H-pyrrolo[2,3-b]pyridin-5-yl)oxy)-4-(4-((4′-chloro-5,5-dimethyl-3,4,5,6-tetra-hydro-[1,1′-biphenyl]-2-yl)methyl)piperazin-1-yl)-N-((3-((4-methylpiperazin-1-yl)methyl)-5-nitro-3,4-dihydro-2H-benzo[b][1,4]thiazin-7-yl)sulfonyl)benzamide], the IC50 with DOHH2 cells (Homo sapiens, DOHH-2, 120 h) was 24 nM; in the test with RS4;11 cells (Homo sapiens, RS4-11, 72 h), 13 nM.
For `CC1(C)CCC(CN2CCN(c3ccc(C(=O)NS(=O)(=O)c4cc5c(c([N+](=O)[O-])c4)N[C@@H](CN4CC(O)C4)CO5)c(Oc4cnc5[nH]ccc5c4)c3)CC2)=C(c2ccc(Cl)cc2)C1` [Example 2-24, (S)-2-((1H-pyrrolo[2,3-b]pyridin-5-yl)oxy)-4-(4-((4′-chloro-5,5-dimethyl-3,4,5,6-tetra-hydro-[1,1′-biphenyl]-2-yl)methyl)piperazin-1-yl)-N-((3-((3-hydroxyazetidin-1-yl)meth-yl)-5-nitro-3,4-dihydro-2H-benzo[b][1,4]oxazin-7-yl)sulfonyl)benzamide], the IC50 with DOHH2 cells (Homo sapiens, DOHH-2, 120 h) amounted to 115 nM; with RS4;11 cells (Homo sapiens, RS4-11, 72 h), 72 nM.
The matching figures for `C[C@@H]1CN(C[C@@H]2COc3cc(S(=O)(=O)NC(=O)c4ccc(N5CCN(CC6=C(c7ccc(Cl)cc7)CC(C)(C)CC6)CC5)cc4Oc4cnc5[nH]ccc5c4)cc([N+](=O)[O-])c3N2)CCN1C1COC1` [Example 2-22, 2-((1H-pyrrolo[2,3-b]pyridin-5-yl)oxy)-4-(4-((4′-chloro-5,5-dimethyl-3,4,5,6-tetra-hydro-[1,1′-biphenyl]-2-yl)methyl)piperazin-1-yl)-N-(((R)-3-(((R)-3-methyl-4-(oxetan-3-yl)piperazin-1-yl)methyl)-5-nitro-3,4-dihydro-2H-benzo[b][1,4]oxazin-7-yl)sulfonyl) benzamide]: 2 nM and 1 nM.
`CC1(C)CCC(c2ccc(Cl)cc2)=C(CN2CCN(c3ccc(C(=O)NS(=O)(=O)c4cc5c(c([N+](=O)[O-])c4)N[C@H](COC4CCOCC4)CO5)c(Oc4cnc5[nH]ccc5c4)c3)CC2)C1` [Example 2-234, (R)-2-((1H-pyrrolo[2,3-b]pyridin-5-yl)oxy)-4-(4-((4′-chloro-4,4-dimethyl-3,4,5,6-tetra-hydro-[1,1′-biphenyl]-2-yl)methyl)piperazin-1-yl)-N-((5-nitro-3-(((tetrahydro-2H-pyran-4-yl)oxy)methyl)-3,4-dihydro-2H-benzo [b][1,4]oxazin-7-yl)sulfonyl)benzamide]: the IC50 in the test on DOHH2 cells (Homo sapiens, DOHH-2, 120 h) is 6 nM; with RS4;11 cells (Homo sapiens, RS4-11, 72 h) it was 14 nM.
As to `CC1(C)CCC(CN2CCN(c3ccc(C(=O)NS(=O)(=O)c4cc5c(c([N+](=O)[O-])c4)N[C@@H](C4CCC(O)CC4)CO5)c(Oc4cnc5[nH]ccc5c4)c3)CC2)=C(c2ccc(Cl)cc2)C1` (stereo partly drawn) [Example 2-245A, (S)-2-((1H-pyrroo[2,3-b]pyridin-5-yl)oxy)-4-(4-((4′-chloro-5,5-dimethyl-3,4,5,6-tetra-hydro-[1,1′-biphenyl]-2-yl)methyl)piperazin-1-yl)-N-((3-(4-hydroxycyclohexyl)-5-nitro-3,4-dihydro-2H-benzo[b][1,4]oxazin-7-yl)sulfonyl)benzamide], the IC50 was 1 nM in the test with DOHH2 cells (Homo sapiens, DOHH-2, 120 h) and 1 nM in the test on RS4;11 cells (Homo sapiens, RS4-11, 72 h).
Turning to `CC1(C)CCC(CN2CCN(c3ccc(C(=O)NS(=O)(=O)c4cc5c(c([N+](=O)[O-])c4)N[C@H](c4ccc(S(C)(=O)=O)cc4)CO5)c(Oc4cnc5[nH]ccc5c4)c3)CC2)=C(c2ccc(Cl)cc2)C1` [Example 2-175, (R)-2-((1H-pyrrolo[2,3-b]pyridin-5-yl)oxy)-4-(4-((4′-chloro-5,5-dimethyl-3,4,5,6-tetra-hydro-[1,1′-biphenyl]-2-yl)methyl)piperazin-1-yl)-N-((3-(4-(methylsulfonyl)phenyl)-5-nitro-3,4-dihydro-2H-benzo[b][1,4]oxazin-7-yl)sulfonyl)benzamide], the IC50 in the test on DOHH2 cells (Homo sapiens, DOHH-2, 120 h) amounted to 139 nM; with RS4;11 cells (Homo sapiens, RS4-11, 72 h) it was 53 nM.
With `CC(=O)N1CCN(C[C@@H]2COc3cc(S(=O)(=O)NC(=O)c4ccc(N5CCN(CC6=C(c7ccc(Cl)cc7)CC(C)(C)CC6)CC5)cc4Oc4cnc5[nH]ccc5c4)cc([N+](=O)[O-])c3N2)CC1` [Example 2-91, (R)-2-((1H-pyrrolo[2,3-b]pyridin-5-yl)oxy)-N-((3-((4-acetylpiperazin-1-yl)methyl)-5-nitro-3,4-dihydro-2H-benzo[b][1,4]oxazin-7-yl)sulfonyl)-4-(4-((4′-chloro-5,5-dimethyl-3,4,5,6-tetrahydro-[1,1′-biphenyl]-2-yl)meth-yl)piperazin-1-yl)benzamide], the IC50 with DOHH2 cells (Homo sapiens, DOHH-2, 120 h) worked out at 49 nM; in the test with RS4;11 cells (Homo sapiens, RS4-11, 72 h), 5 nM.
